Numbering of substitutions follows the chain as printed. Entries after “also recorded” stand apart in the source; their conditions may differ. Where two headings read alike, the source gives them in different places.

The values below come from patent US20260034119A1, “5-METHOXY-N,N-[…][…], THEIR […], AND METHODS FOR TREATMENT OF NEUROLOGICAL, […], AND SUBSTANCE USE DISORDERS” (priority 2023, published 2026).

For one series, the target named is T1, MAO-A (Homo sapiens, UniProt P21397).
T1 sequence (P21397 1-527): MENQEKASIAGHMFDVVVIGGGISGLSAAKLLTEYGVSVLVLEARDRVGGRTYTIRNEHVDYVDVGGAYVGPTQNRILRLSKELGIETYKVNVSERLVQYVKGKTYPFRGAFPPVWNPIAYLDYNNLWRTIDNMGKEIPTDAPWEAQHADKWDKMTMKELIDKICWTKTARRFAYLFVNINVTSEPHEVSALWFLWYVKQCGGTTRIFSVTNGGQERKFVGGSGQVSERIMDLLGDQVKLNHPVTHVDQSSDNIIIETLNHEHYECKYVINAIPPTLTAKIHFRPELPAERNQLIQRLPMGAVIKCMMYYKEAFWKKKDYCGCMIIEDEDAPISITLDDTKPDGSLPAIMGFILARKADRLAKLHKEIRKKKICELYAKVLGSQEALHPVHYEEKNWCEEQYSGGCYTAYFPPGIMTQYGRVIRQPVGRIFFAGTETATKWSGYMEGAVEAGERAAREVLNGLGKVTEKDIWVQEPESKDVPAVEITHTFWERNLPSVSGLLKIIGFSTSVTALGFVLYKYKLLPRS
As to the kind of experiment: MAO-A activity (metabolism of compound). The conditions noted are these: versus the DMT analogs.

The next series addresses T2, 5-HT1A A365N (Homo sapiens, UniProt P08908, A365N).
T2 construct: expressed in transfected cells; host or cells: HEK293-T
T2 sequence (P08908 1-422 A365N): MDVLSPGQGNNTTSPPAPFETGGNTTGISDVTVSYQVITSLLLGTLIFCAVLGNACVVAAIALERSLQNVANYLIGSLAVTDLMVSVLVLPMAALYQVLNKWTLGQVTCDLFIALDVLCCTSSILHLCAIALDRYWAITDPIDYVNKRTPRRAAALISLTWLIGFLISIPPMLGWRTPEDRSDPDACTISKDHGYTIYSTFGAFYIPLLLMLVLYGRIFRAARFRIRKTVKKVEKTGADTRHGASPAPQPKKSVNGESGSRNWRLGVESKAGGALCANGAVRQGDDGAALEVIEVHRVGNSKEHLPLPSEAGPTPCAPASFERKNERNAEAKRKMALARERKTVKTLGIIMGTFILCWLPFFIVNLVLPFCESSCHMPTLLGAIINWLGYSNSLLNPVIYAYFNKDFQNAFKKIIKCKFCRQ
As to the kind of experiment: Gi1 BRET at mutant 5-HT1A A365N. In kind it is cell-based. On the technique in general: BRET reads energy transfer from a luciferase to a nearby fluorophore.

Another series concerns the target T3, 5-HT1A N386V (Homo sapiens, UniProt P08908, N386V).
T3 construct: expressed in transfected cells; host or cells: HEK293-T
T3 sequence (P08908 1-422 N386V): T2 sequence (P08908 1-422 A365N) with N365A, N386V
As to the kind of experiment: Gi1 BRET at mutant 5-HT1A N386V. In kind it is cell-based.

In the next series the target is T4, 5-HT2A V366N (Homo sapiens, UniProt P28223, V366N).
T4 construct: expressed in transfected cells; host or cells: HEK293-T
T4 sequence (P28223 whole entry V366N): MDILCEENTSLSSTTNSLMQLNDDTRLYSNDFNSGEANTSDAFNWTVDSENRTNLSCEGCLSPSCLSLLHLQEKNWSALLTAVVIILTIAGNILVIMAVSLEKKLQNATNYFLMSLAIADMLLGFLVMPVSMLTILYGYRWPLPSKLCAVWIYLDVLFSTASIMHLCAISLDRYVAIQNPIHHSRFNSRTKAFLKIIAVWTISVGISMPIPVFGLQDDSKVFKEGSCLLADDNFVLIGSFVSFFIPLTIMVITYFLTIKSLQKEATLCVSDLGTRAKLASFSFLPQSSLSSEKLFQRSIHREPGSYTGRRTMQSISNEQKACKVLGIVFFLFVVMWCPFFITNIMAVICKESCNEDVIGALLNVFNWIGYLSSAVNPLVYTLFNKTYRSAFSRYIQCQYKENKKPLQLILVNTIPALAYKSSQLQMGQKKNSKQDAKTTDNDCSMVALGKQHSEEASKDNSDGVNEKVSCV
As to the kind of experiment: Gq BRET at mutant 5-HT2A V366N. In kind it is cell-based.

The target of series [1] is T5, 5-HT2A (Homo sapiens, UniProt P28223). As to the kind of experiment: cell-based.
T5 sequence (P28223 whole entry): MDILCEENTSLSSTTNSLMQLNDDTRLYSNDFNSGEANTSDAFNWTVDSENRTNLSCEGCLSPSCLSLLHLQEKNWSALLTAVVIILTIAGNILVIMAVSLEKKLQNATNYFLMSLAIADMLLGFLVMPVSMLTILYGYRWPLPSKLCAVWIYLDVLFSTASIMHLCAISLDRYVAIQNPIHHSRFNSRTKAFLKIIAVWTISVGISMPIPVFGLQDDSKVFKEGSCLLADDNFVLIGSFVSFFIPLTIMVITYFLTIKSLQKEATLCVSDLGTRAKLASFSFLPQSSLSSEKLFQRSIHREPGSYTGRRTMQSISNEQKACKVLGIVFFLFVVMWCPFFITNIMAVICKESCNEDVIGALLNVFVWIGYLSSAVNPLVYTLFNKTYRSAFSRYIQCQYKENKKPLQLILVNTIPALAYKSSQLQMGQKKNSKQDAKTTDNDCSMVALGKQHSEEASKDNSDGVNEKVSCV
The target in series [2] is T6, 5-HT1A (Homo sapiens, UniProt P08908). As to the kind of experiment: BRET signaling assay: 5-HT1A-mediated activation of heterotrimeric Gi1 (TRUPATH, HEK293-T).
T6 sequence (P08908 whole entry): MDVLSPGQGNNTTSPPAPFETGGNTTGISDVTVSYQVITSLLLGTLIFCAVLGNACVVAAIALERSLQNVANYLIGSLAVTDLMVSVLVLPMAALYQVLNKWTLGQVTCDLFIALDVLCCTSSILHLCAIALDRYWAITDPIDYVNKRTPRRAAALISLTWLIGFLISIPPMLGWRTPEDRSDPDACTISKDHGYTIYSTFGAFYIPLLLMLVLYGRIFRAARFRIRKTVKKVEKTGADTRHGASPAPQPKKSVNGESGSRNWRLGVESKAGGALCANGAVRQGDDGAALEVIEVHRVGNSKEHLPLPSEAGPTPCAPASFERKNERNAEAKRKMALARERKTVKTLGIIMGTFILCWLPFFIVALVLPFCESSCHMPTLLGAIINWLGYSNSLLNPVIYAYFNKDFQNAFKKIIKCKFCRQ
The target in series [3] is T5, 5-HT2A.
For the next series, the target named is T7, human 5-HT1A (Homo sapiens, UniProt P08908).
T7 sequence (P08908 1-422): T2 sequence (P08908 1-422 A365N) with N365A
As to the kind of experiment: cell-based.

The next series has as its target 5-HT2B (Homo sapiens, UniProt P41595). As to the kind of experiment: IP1 functional assay 5-HT2B. In kind it is cell-based. The conditions noted are these: for Emax: read-out: 5-HT2B (IP1) Emax (%5-HT), Table 3.
Series [4] can be described thus: Microsomal stability, human liver microsomes. In kind it is in vitro ADME. The conditions noted are these: versus the DMT analogs. How it is done: Microsomal incubations were carried out in 96-well plates in 5 aliquots of 30 μL each (one for each time point). Liver microsomal incubation medium comprised of phosphate buffer (100 mM, pH 7.4), MgCl2 (3.3 mM), NADPH (3 mM), glucose-6-phosphate (5.3 mM), glucose-6 phosphate dehydrogenase (0.67 units/ml) with 0.42 mg of liver microsomal protein per ml. In the control reactions the NADPH-cofactor system was substituted with phosphate buffer. Test compounds (2 μM, final solvent concentration 1.6%) were incubated with microsomes at 37° C., shaking at 100 rpm. Each reaction was performed in duplicates. Five time points over 90 minutes were analyzed. The reactions were stopped by adding 5 volumes of methanol containing internal standard to incubation aliquots, followed by protein sedimentation by centrifuging at 5500 rpm for 4 minutes. Supernatants were analyzed using the HPLC system coupled with tandem mass spectrometer. The elimination constant (kel), half-life (t1/2) and intrinsic clearance (Clint) were determined in plot of […] versus time, using linear regression analysis.
In general terms: Liver microsomes are a subcellular fraction often used to study metabolism.

The target in series [5] is T6, 5-HT1A. As to the kind of experiment: cell-based.
Series [6] addresses T5, 5-HT2A. As to the kind of experiment: cell-based. On the set-up: expressed in transfected cells; host or cells: HEK293-T. The conditions noted are these: for Emax: read-out: 5-HT2A (IP1) Emax (%5-HT).
For series [7], the system named is C57BL/6J mice. As to the kind of experiment: Social interaction test after chronic social defeat stress (CSDS). The conditions noted are these: one s.c. administration.
Series [8] deals with C57BL/6J mice. As to the kind of experiment: Sucrose preference test after chronic social defeat stress. In kind it is in vivo, mouse. The conditions noted are these: stressed mice, relative to vehicle-treated animals. The text has this: The sucrose preference test is a volitional two-bottle choice procedure in which mice are given the choice between consuming water and a 1% sucrose solution. This paradigm has been used extensively to assess the effects of stress-induced anhedonia. On day 10 of CSDS mice were individually housed and habituated to two bottles containing just water. Twenty-four hours later, following the SI test, one bottle was replaced with a 1% sucrose solution (w/v) made with water from the animal vivarium. Mice had ad libitum overnight access to both bottles and preference for sucrose over water was calculated as follows: [sucrose/(sucrose+water)*100]. Data were averaged from two independent experiments. A total of 27 mice were administered vehicle (9 control, 18 stress), 27 received 4-F, 5-MeO-PyrT (9 control, 18 stress), 15 received WAY-100635 (5 control, 10 stress), and 15 received 4-F, 5-MeO-PyrT+WAY-100635 (5 control, 10 stress). More animals were used for the stressed groups due to the inherent resilience of mice to social defeat stress (Krishnan et al. 2007). Analysis of different treatment conditions of control and stressed animals was done in GraphPad Prism using two-way ANOVA.

Sequence of 5-HT2B (P41595 whole entry, species assumed): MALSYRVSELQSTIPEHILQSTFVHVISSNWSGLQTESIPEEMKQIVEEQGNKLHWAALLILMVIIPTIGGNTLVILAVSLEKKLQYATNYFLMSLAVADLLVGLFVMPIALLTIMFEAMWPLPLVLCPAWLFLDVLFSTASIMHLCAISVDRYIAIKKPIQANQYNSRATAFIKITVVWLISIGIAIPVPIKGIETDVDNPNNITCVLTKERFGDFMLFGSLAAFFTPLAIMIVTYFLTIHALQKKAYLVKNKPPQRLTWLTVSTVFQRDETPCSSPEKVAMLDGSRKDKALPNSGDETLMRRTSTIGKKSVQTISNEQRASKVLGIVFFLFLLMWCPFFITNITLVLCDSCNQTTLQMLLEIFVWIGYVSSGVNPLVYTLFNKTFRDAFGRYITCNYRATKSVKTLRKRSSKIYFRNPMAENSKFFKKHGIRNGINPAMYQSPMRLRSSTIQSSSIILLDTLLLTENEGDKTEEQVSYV

For `C=CCN(C)CCc1c[nH]c2ccc(OC)c(F)c12` [4-F, 5-MeO MALT], the “MAO A metabolism” value on MAO-A is recorded as “markedly slower MAO A metabolism versus the DMT analogs”.
On to `COc1ccc2[nH]cc(CCN3CCCC3)c2c1` [Compound 18, 5-methoxy-N,N-pyrrolidinyl-tryptamine], for which the EC50 (usually the concentration at which the effect is half-maximal) was determined as 28.9 nM at 5-HT1A A365N (EC50 (nM), Gi1 BRET, 5-HT1A A365N^6.55); 24.9 nM at 5-HT1A N386V; 55.6 nM at 5-HT2A V366N; 81.5 nM at 5-HT2A [1] (EC50 (nM), Gq BRET, 5-HT2A WT); 2.13 nM at 5-HT1A [2] (EC50 (nM), Gi1 BRET, 5-HT1A WT); 2.1 nM at 5-HT1A [2] (Gi BRET EC50). Further, on 5-HT1A [2] (5-HT1A Gi BRET vs 5-HT2A Gq BRET), the “selectivity for 5-HT1A>5-HT2A” value is reported as more than 38 fold. Also, the “increase in 5-HT1A>5-HT2A selectivity” value on 5-HT1A [2] (cyclization of the amine moiety, relative to 5-MeO-DMT) was approximately 38 fold.
For the compound `COc1ccc2[nH]cc(CCN(C)C)c2c1F` [Compound 25, 2-(4-fluoro-5-methoxy-1H-indol-3-yl)-N,N-dimethylethane-1-amine], the EC50 was 20.1 nM on 5-HT1A A365N; 3.71 nM on 5-HT1A N386V; 392 nM on 5-HT2A V366N; 0.186 nM at human 5-HT1A; 86.5 nM at 5-HT2A [1]; 86.5 nM on 5-HT2A [1] (EC50 (nM), Gq BRET, 5-HT2A WT). Moreover, the EC50 on 5-HT1A [2] (EC50 (nM)) and on 5-HT1A [2] (EC50 (nM) 5-HT1A BRET Gi1) was 1.77 nM in each case. Moreover, the “decrease in potency at 5-HT2A” value at 5-HT2A [3] (relative to 5-MeO-DMT) is 3 fold. Also, on 5-HT1A [2], the “Efficacy as %5HT (SEM) 5-HT1A BRET Gi1” value is listed as 103.5 1.59) %5HT. Also, on 5-HT1A [2], the “increase in signaling potency at 5-HT1A” value was 14 fold.
For `CCN(C)CCc1c[nH]c2ccc(OC)c(F)c12` [Compound 26, N-ethyl-2-(4-fluoro-5-methoxy-1H-indol-3-yl)-N-methylethan-1-amine], the EC50 at 5-HT2B is 66 nM; on human 5-HT1A it was 0.316 nM; on 5-HT1A [5], 1.77 nM; at 5-HT2A [1], 99.3 nM; at 5-HT2A [6] it was 230 nM. Also, the Emax – broadly, the size of the effect at its maximum, as opposed to the concentration needed – was determined as 39% at 5-HT2B and 90% on 5-HT2A [6]. Also, the “microsomal stability in human microsomes” value in series [4] is on record as “greater stability in human microsomes versus the DMT analogs”. The “general locomotion at the social interaction test” value with C57BL/6J mice [7] (mice) is listed as “no effects on general locomotion”. Besides, the “corner time (anxiety-like behavior)” value in the series on C57BL/6J mice [7] (stressed mice) was “rescued”. The “social interaction deficit induced by chronic social defeat stress” value with C57BL/6J mice [7] (stressed mice, test 24 hr post drug, listed as 4-F, 5-MeO-MET) is given as “rescued; also recorded: rescuing the social interaction deficit”.
Take `CCCN(C)CCc1c[nH]c2ccc(OC)c(F)c12` [Compound 28, N-(2-(4-fluoro-5-methoxy-1H-indol-3-yl)ethyl)-N-methylpropan-1-amine]: the EC50 at 5-HT2B amounted to 72 nM; on human 5-HT1A, 0.417 nM; on 5-HT1A [5], 3.06 nM; on 5-HT2A [1], 115 nM; on 5-HT2A [6], 250 nM. Also, the Emax on 5-HT2B was 47%; at 5-HT2A [6], 106%. The “microsomal stability in human microsomes” value in [4] is on record as “greater stability in human microsomes versus the DMT analogs”. The “MAO A metabolism” value at MAO-A is recorded as “markedly slower MAO A metabolism versus the DMT analogs”.
Turning to `CCCN(CCC)CCc1c[nH]c2ccc(OC)c(F)c12` [Compound 30, N-(2-(4-fluoro-5-methoxy-1H-indol-3-yl)ethyl)-N-propylpropan-1-amine], the EC50 on 5-HT2B is 99 nM; on human 5-HT1A, 1.31 nM; at 5-HT1A [5], 3.7 nM; at 5-HT2A [1] it was 142 nM; on 5-HT2A [6], 180 nM. Also, the Emax is 86% at 5-HT2B and 100% on 5-HT2A [6]. The “microsomal stability in human microsomes” value in [4] was “greater stability in human microsomes versus the DMT analogs”. For the same compound, the “MAO A metabolism” value at MAO-A is recorded as “markedly slower MAO A metabolism versus the DMT analogs”.
As to `CCN(CC)C(=O)[C@@H]1C=C2c3cccc4[nH]cc(c34)C[C@H]2N(C)C1` [LSD, reference compound], the “effect of 5-HT2A V366N mutation on potency and efficacy” value at 5-HT2A V366N (mutant vs wildtype 5-HT2A) is listed as “increase in signaling efficacy”. Further, the “Efficacy as %5HT 5-HT2A BRET Gq” value on 5-HT2A [3] (Table 6, commercial ligands) is 82.4 %5HT.
Regarding `COc1ccccc1N1CCN(CCN(C(=O)C2CCCCC2)c2ccccn2)CC1` [WAY-100635, reference compound], the sucrose preference result in the series on C57BL/6J mice [8] is on record as “not statistically significant”.
